For 76 compounds, Kd results are on record in patent US20260373266A1, “PROTEIN DEGRADERS AND USES THEREOF” (KYMERA THERAPEUTICS, INC., priority 2022, published 2026).

Structures are written as SMILES. A value given as a limit tells only on which side of the number the result lay.

The target in the assay is T1, DCAF1 WD40 domain (residues 1077-1390) (Homo sapiens, UniProt Q9Y4B6).
T1 construct: DCAF1 WD40 domain (residues 1077-1390)
Description: DCAF1 binding assay by SPR (Biacore 8K+), DCAF1-3 KD. The conditions noted are these: 25 °C, read-out: DCAF1-3 SPR (KD).

T1 sequence (Q9Y4B6 1077-1390): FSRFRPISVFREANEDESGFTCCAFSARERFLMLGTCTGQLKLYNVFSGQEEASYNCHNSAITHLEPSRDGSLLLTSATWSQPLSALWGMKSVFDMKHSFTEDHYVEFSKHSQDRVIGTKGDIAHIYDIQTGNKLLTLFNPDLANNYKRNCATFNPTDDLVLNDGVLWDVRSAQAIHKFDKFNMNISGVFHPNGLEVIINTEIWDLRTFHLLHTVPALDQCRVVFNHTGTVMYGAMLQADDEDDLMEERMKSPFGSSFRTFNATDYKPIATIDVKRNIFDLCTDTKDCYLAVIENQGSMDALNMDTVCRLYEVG

A word on the Kd: it is the concentration at which binding is half-saturated. Take `c1ccc2cc(N3CCC[C@@H](Nc4cc(N5CCOCC5)ncn4)C3)ccc2c1` [I-389]: the dissociation constant Kd was above 200 µM. As for `Clc1cc(N2CCC[C@@H](Nc3cc(N4CCOCC4)ccn3)C2)nc(C2CC2)n1` [I-679], the Kd was above 200 µM. Take `Fc1cccc(N2CCC[C@@H](Nc3cc(N4CCOCC4)[nH]n3)C2)c1` [I-329]: the dissociation constant Kd is above 200 µM. As to `NC(=O)[C@@H]1C[C@H](Nc2cc(N3CCCCC3)ccn2)CN(c2cccc(F)c2)C1` [I-1031], the Kd lay within 10 to 100 µM. For `NC(=O)C[C@H](NC(=O)c1c[nH]c(Nc2ccccc2)c1-c1c(F)cccc1F)c1cccc(Cl)c1` [I-629] the value was below 10 µM; for `Cc1ccc(-c2[nH]ncc2C(=O)N[C@@H](CC(N)=O)c2cccc(Cl)c2)c(F)c1` [I-506], below 10 µM; for `NC(=O)C[C@H](NC(=O)c1cn[nH]c1-c1ccccc1F)c1ccc(C(N)=O)cc1` [I-354], above 200 µM.

In the case of `Fc1cccc(N2CCC[C@@H]3[C@H]2CCN3c2cc(N3CCCCCC3)ccn2)c1` [I-635], the Kd was in the range of 10 to 100 µM. For `Fc1cccc(N2CCC[C@@H](Nc3cc([C@@H]4CCCOC4)ccn3)C2)c1` [I-123], the Kd is above 200 µM. Turning to `Cc1cccc(N2CCC[C@@H]3[C@H]2CCN3c2cc(N3CC4CC(C4)C3)ccn2)c1` [I-706], the equilibrium dissociation constant (Kd) is below 10 µM. `Fc1cccc(N2CCC[C@H]3[C@@H]2CCCN3c2cc(N3CCCCC3)ccn2)c1` [I-720]: the Kd is below 10 µM. `CSc1ccc(N2CCC[C@@H](Nc3cc(N4CCOCC4)ccn3)C2)c(Cl)c1` [I-857]: the equilibrium dissociation constant (Kd) is above 200 µM. As to `O=C(N[C@H](c1cccc(Cl)c1)[C@H]1CCNC1=O)c1c[nH]nc1-c1ccccc1F` [I-192], the dissociation constant Kd was above 200 µM. Consider `NCc1cnc(N2CCCCC2)nc1N[C@@H]1CCCN(c2cccc(F)c2)C1` [I-1010], for which the Kd lay within 10 to 100 µM.

As to `C=CC(=O)NCCC1CCN(c2ccnc(N3CC[C@H]4[C@@H]3CCCN4c3cccc(F)c3)c2)CC1` [I-672], the Kd was below 10 µM. The value for `Fc1cccc(N2CCCC(Nc3nccc(N4CCOCC4)n3)C2)c1` (stereo not shown) [I-22] was above 200 µM; that for `Cc1cccc(-c2[nH]ncc2C(=O)N[C@@H](CC(N)=O)c2cccc(Cl)c2)c1` [I-102] was 10 to 100 µM. With `Fc1cccc(N2CCC[C@@H](n3cnc4c(N5CCOCC5)ccnc43)C2)c1` [I-50], the Kd was above 200 µM.

In the case of `Fc1cccc(N2CCC[C@@H](Nc3cc(N4CCOCC4)cnn3)C2)c1` [I-20], the dissociation constant Kd is above 200 µM. Consider `Nc1ccc(F)cc1N1CCC[C@@H]2[C@H]1CCN2c1cc(N2CCCCC2)ccn1` [I-811], for which the Kd was below 10 µM. `Cc1cccc(F)c1-c1[nH]ncc1C(=O)N[C@H](CC(N)=O)c1cc(Cl)cc(Cl)c1` [I-735]: the Kd is 100 to 200 µM. In the case of `NC(=O)C[C@H](N/C(=N\O)c1cn[nH]c1-c1ccccc1F)c1cccc(Cl)c1` [I-162], the Kd was above 200 µM. The value for `Fc1cccc(N2CCC[C@@H]3[C@H]2CCN3c2cc(N3CCOCC3)ccn2)c1` [I-189] was 10 to 100 µM; that for `C=CC(=O)N1CCC2(CC1)CCN(c1ccnc(N[C@@H]3CCCN(c4cccc(F)c4)C3)c1)CC2` [I-642] was 10 to 100 µM. For `CC(C(N)=O)[C@H](NC(=O)c1cn[nH]c1-c1ccccc1F)c1cccc(Cl)c1` (stereo partly shown) [I-141] the value was above 200 µM; for `C[C@@H](C(N)=O)[C@H](NC(=O)c1c[nH]nc1-c1ccccc1F)c1cccc(Cl)c1` [I-148], below 10 µM; for `Oc1c(CN2CCCCC2)cccc1[C@@H]1CCCN(c2cccc(F)c2)C1` [I-730], above 200 µM. The value for `Cc1sc2c(c1C)C(c1ccc(Cl)cc1)=N[C@@H](CC(=O)NCCCCCCCCCCCCCCCCCCCCC1CCN(c3ccnc(N4CC[C@@H]5[C@H]4CCCN5c4cccc(F)c4)c3)CC1)c1nnc(C)n1-2` [I-903] was above 200 µM; that for `c1ccc2c(N3CCC[C@@H](Nc4cc(N5CCOCC5)ccn4)C3)n[nH]c2c1` [I-111] was above 200 µM; that for `O=C(O)C1C(Nc2cc(N3CCOCC3)ccn2)CCCN1c1cccc(F)c1` (stereo not shown) [I-628] was 10 to 100 µM.

Regarding `NC(=O)C[C@H](NC(=O)c1cc(=O)[nH]cc1-c1ccccc1F)c1cccc(Cl)c1` [I-215], the Kd was above 200 µM. In the case of `COc1cccc(N2CCC[C@@H](Nc3cc(N4CCOCC4)ncn3)C2)c1` [I-9], the dissociation constant (Kd) lay in the range of 100 to 200 µM. Take `Cc1c(F)ccc(F)c1-c1c(C(=O)N[C@@H](CC(N)=O)c2cccc(Cl)c2)c[nH]c1C(=O)c1cccc(C(C)C)c1` [I-739]: the dissociation constant (Kd) was below 10 µM.

Take `Fc1cccc(N2C[C@H](F)C[C@@H](Nc3cc(N4CCOCC4)ncn3)C2)c1` [I-135]: the equilibrium dissociation constant (Kd) was above 200 µM. For `C[C@H](CC(N)=O)NC(=O)c1cn[nH]c1-c1ccccc1F` [I-132] the value was above 200 µM; for `C=CC(=O)NCCCCC1CCN(c2ccnc(N3CC[C@@H]4[C@H]3CCCN4c3cccc(F)c3)c2)CC1` [I-852], below 10 µM; for `COCCN1CCN(c2cc(N[C@@H]3CCCN(c4cccc(F)c4)C3)ncn2)CC1` [I-378], above 200 µM. For `C[C@@H]1C[C@@H](Nc2cc(N3CCOCC3)ncn2)CN(c2cccc(F)c2)C1` [I-177] the value was above 200 µM; for `OC[C@@H]1[C@H](Nc2cc(N3CCOCC3)ccn2)CCCN1c1cccc(F)c1` [I-279], above 200 µM. In the case of `Fc1cccc(N2CCC[C@@H]3CN(c4cc(N5CCCCC5)ccn4)C[C@@H]32)c1` [I-668], the dissociation constant Kd lay in the range of 10 to 100 µM. The value for `NC(=O)C[C@H](NC(=O)c1cn[nH]c1-c1cccc(O)c1)c1cccc(Cl)c1` [I-332] was 10 to 100 µM; that for `Nc1cc(N2CCOCC2)cc(N[C@@H]2CCCN(c3cccc(F)c3)C2)n1` [I-369] was above 200 µM. For `NC(=O)C[C@@]1(NC(=O)c2c[nH]nc2-c2ccccc2F)CCCc2ccc(Cl)cc21` [I-243], the Kd was above 200 µM. For `Cc1sc2c(c1C)C(c1ccc(Cl)cc1)=N[C@@H](CC(=O)NCCOCCOCCOCCOCCOCCn1ncc(C(=O)N[C@@H](CC(N)=O)c3cccc(Cl)c3)c1-c1ccccc1F)c1nnc(C)n1-2` [I-488] the value was 10 to 100 µM; for `COCCOCC(=O)c1[nH]cc(C(=O)N[C@@H](CC(N)=O)c2cccc(Cl)c2)c1-c1ccccc1F` [I-556], below 10 µM; for `Nc1cc(N[C@@H]2CCCN(c3cccc(F)c3)C2)cc(N2CCOCC2)c1` [I-538], below 10 µM.

For `O=C1C[C@@H]([C@H](NC(=O)c2c[nH]nc2-c2ccccc2F)c2cccc(Cl)c2)CN1` [I-223], the dissociation constant Kd is above 200 µM. As to `NC[C@@H]1C[C@@H](Nc2cc(N3CCCCC3)ccn2)CN(c2cccc(F)c2)C1` [I-1040], the Kd fell in the range of 10 to 100 µM. As to `Cc1ccc(S(=O)(=O)c2[nH]cc(C(=O)N[C@@H](CC(N)=O)c3cccc(Cl)c3)c2-c2c(F)ccc(F)c2C)cc1` [I-817], the Kd was below 10 µM.

For `Fc1cccc(N2[C@H]3CCC[C@@H]2[C@H](Nc2nccc(N4CCOCC4)n2)CC3)c1` (stereo in doubt) [I-322], the dissociation constant Kd was above 200 µM. For `Cc1ccccc1N1CCC[C@@H](Nc2cc(N3CCOCC3)ncn2)C1` [I-4] the value was above 200 µM. As to `C[C@@H]1CCCN(c2ccnc(N[C@@H]3CCCN(c4cccc(F)c4)C3)c2)C1` [I-552], the dissociation constant (Kd) lay within 10 to 100 µM. Take `OCCC[C@H]1C[C@H]2[C@@H](CCCN2c2cccc(F)c2)N1c1cc(N2CCCCC2)ccn1` [I-834]: the Kd lay in the range of 10 to 100 µM.

`Fc1cccc(N2CCC[C@@H](Nc3cc(N4CCCCC4)ccn3)C2)c1` [I-503]: the Kd was below 10 µM.

For the compound `COCCN(c1cc(N2CCCCC2)ccn1)[C@@H]1CCCN(c2cccc(F)c2)C1` [I-596], the dissociation constant Kd fell in the range of 10 to 100 µM. The value for `O=C(O)[C@@H]1[C@H](Nc2cc(N3CCOCC3)ccn2)CCCN1c1cccc(F)c1` [I-287] was above 200 µM. As for `O=C(N[C@H](c1cccc(Cl)c1)[C@@H]1CCCNC1=O)c1c[nH]nc1-c1ccccc1F` [I-195], the Kd was above 200 µM. Turning to `O=CNc1ccc(N2CCC[C@H]3[C@@H]2CCN3c2cc(N3CCCCC3)ccn2)cc1F` [I-762], the Kd is above 200 µM.

For the compound `c1ccc(N2CCC[C@H]3[C@@H]2CCN3c2cc(N3CC4CC(C4)C3)ccn2)cc1` [I-710], the Kd is 10 to 100 µM. With `NC(=O)CCN(c1cc(N2CCOCC2)ccn1)[C@@H]1CCCN(c2cccc(F)c2)C1` [I-291], the Kd is above 200 µM.

With `N#Cc1ccccc1[C@H](CC(N)=O)NC(=O)c1cn[nH]c1-c1ccccc1F` [I-342], the equilibrium dissociation constant (Kd) is 10 to 100 µM. For `CN(C)C(=O)c1cccnc1N1CCC[C@@H](Nc2cc(N3CCOCC3)ccn2)C1` [I-784] the value was above 200 µM. As for `COC(=O)c1cc(N2CCC[C@@H](Nc3cc(N4CCOCC4)ccn3)C2)cc2c1OCO2` [I-779], the dissociation constant (Kd) was above 200 µM.

For `N#Cc1cnc(N2CCOCC2)cc1N[C@@H]1CCCN(c2cccc(F)c2)C1` [I-408], the Kd was above 200 µM. As for `NCc1ccc(N2CCC[C@@H](Nc3cc(N4CCOCC4)ccn3)C2)cc1` [I-868], the Kd is below 10 µM. For `C=CC(=O)Nc1ccc2[nH]nc(C(=O)N[C@@H](CC(N)=O)c3cccc(Cl)c3)c2c1` [I-302] the value was above 200 µM; for `CN(C)CC[C@H](c1ccc(N2CCC[C@@H](Nc3cc(N4CCOCC4)ccn3)C2)cc1)c1ccccn1` [I-783], above 200 µM; for `NC(=O)C[C@H](NC(=O)c1cn[nH]c1-c1ccccc1F)c1cccc(C(N)=O)c1` [I-353], above 200 µM. Turning to `NC(=O)C[C@H](NC(=O)c1ccc(-c2nc(C3CC3)n[nH]2)cc1)c1cccc(Cl)c1` [I-439], the Kd is above 200 µM. On to `C=CC(=O)N1CCC(N(C)c2ccnc(N[C@@H]3CCCN(c4cccc(F)c4)C3)c2)C1` (stereo partly shown) [I-458], for which the Kd is above 200 µM.

Regarding `Fc1cccc(N2CCCC3(CNc4cnc(N5CCCCC5)cc4N3)C2)c1` (stereo not shown) [I-993], the dissociation constant Kd lay within 10 to 100 µM. The value for `Fc1cccc(N2CCC[C@@H](Nc3cc(N4C[C@H]5CCC4CO5)ncn3)C2)c1` [I-309] was above 200 µM.

For `OCCC[C@@H]1C[C@H]2[C@@H](CCCN2c2cccc(F)c2)N1c1cc(N2CCCCC2)ccn1` [I-831], the Kd lay in the range of 10 to 100 µM. The value for `CCCN1CCN(c2ccnc(N[C@@H]3CCCN(c4cccc(F)c4)C3)n2)CC1` [I-317] was above 200 µM.

As to `NC(=O)C[C@H](NC(=O)c1cn[nH]c1-c1ccccc1F)c1ccc(O)cc1` [I-130], the Kd is above 200 µM. With `NC(=O)CN(c1cc(N2CCOCC2)ccn1)[C@@H]1CCCN(c2cccc(F)c2)C1` [I-272], the Kd was above 200 µM.
